For experiment [1], the target named is Cbl-b (Homo sapiens (Human), UniProt Q13191). The experiment in a line: Cbl-b LCK Ub TR-FRET assay (Cbl-b Lck HTRF). The class given is biochemical. The settings on record: for pIC50: Cbl-b LCK Ub TR-FRET; for fold-selectivity (Cbl-b over C-cbl): ratio C-cbl Lck HTRF IC50 / Cbl-b Lck HTRF IC50. Summed up:
(§1)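 Detection reagents added, brief spin, 20 min RT. IC50 fit normalized to no-LCK (low) and DMSO (high) controls.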
On the technique in general: Time-resolved FRET reads energy transfer from a long-lived donor to a nearby acceptor.

Experiment [2] addresses c-Cbl (residues 47-435) (Homo sapiens (Human), UniProt P22681). The experiment in a line: c-Cbl SPR assay. It is filed as binding. The settings on record: 20° C. In a few lines: (§2)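 Captured protein (1300-1500 RU for both isoforms) was probed in multi-cycle kinetics with 6 concentrations in 2-fold dilution, 60 s contact, 40 μl/min, dissociation 120-1200 s, double-referenced. Kinetic and affinity parameters came from a 1:1 binding fit. For slow off-rates, kd was set independently by a chaser-based method.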

Experiment [3] deals with c-Cbl (Homo sapiens (Human), UniProt P22681). The experiment in a line: C-Cbl LCK Ub TR-FRET assay (C-cbl Lck HTRF). The class given is biochemical. In a few lines:
as §1

Experiment [4] concerns the target Human Cbl-b (residues 40-426) (Homo sapiens (Human), UniProt Q13191). As to the kind of experiment: Cbl-b SPR assay. It is filed as binding. The following applies: for Fold of selectivity: C-cbl SPR Kd vs Cbl-b SPR Kd; for pKd: SPR, 20° C. In a few lines: as §2
(In SPR one partner is held on a chip, and binding of the other changes the refractive index at the surface.)

Eleven molecules from patent US12187709B2 (Genentech, Inc., priority 2021, dated 2025) can be followed below.

pIC50, pKd: −log10 of the molar value.

Sequence of Human Cbl-b (residues 40-426) (Q13191 40-426): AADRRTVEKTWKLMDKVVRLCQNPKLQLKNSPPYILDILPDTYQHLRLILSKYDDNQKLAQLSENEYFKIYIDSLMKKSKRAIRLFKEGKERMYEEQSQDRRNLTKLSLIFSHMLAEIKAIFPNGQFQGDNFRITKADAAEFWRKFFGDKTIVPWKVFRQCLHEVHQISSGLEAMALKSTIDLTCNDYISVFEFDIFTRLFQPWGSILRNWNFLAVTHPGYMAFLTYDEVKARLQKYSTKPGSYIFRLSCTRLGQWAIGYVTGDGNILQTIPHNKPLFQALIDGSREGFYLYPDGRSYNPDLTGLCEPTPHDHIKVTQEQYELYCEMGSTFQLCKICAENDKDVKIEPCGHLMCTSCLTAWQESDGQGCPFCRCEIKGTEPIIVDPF
Sequence of Cbl-b (Q13191 40-426): as above
Sequence of c-Cbl (P22681 47-435): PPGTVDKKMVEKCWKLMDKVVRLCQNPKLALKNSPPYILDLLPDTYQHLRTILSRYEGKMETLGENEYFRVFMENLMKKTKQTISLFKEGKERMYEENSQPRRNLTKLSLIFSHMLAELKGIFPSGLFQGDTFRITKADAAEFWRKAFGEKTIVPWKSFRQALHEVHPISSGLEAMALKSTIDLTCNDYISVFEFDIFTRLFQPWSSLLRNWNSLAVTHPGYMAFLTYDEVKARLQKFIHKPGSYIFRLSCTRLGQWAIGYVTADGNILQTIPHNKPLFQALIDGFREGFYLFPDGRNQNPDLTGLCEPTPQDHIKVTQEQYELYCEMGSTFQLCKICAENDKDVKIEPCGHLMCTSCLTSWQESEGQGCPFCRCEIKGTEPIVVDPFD
Sequence of c-Cbl (residues 47-435) (P22681 47-435): as above

As a reminder, the pIC50 is the negative decadic logarithm of the IC50, by convention in mol/L. One may read the pKd as the Kd on a negative log10 scale, so that one unit is a factor of ten. As for `COC[C@H]1C[C@@](c2cccc(N3Cc4c(cc(CNC5(C)CCC5)cc4C(F)(F)F)C3=O)c2)(c2nncn2C)C1` [Compound 103, 2-(3-((1s,3s)-3-(methoxymethyl)-1-(4-methyl-4H-1,2,4-triazol-3-yl)cyclobutyl)phenyl)-6-(((1-methylcyclobutyl)amino)methyl)-4-(trifluoromethyl)isoindolin-1-one], in experiment [1], the pIC50 was 7.85 and the “fold-selectivity (Cbl-b over C-cbl)” value is 1.7x. In experiment [2], this molecule had a pKd of 7.92. The pIC50 in experiment [3] is 7.59. Also, in experiment [4], the Fold of selectivity was 7.8× and the pKd is 8.80.

With `COC[C@H]1C[C@](c2cccc(N3Cc4c(cc(CNC5(C)CCC5)cc4C(F)(F)F)C3=O)c2)(c2nncn2C)C1` [Compound 104, 2-(3-((1r,3r)-3-(methoxymethyl)-1-(4-methyl-4H-1,2,4-triazol-3-yl)cyclobutyl)phenyl)-6-(((1-methylcyclobutyl)amino)methyl)-4-(trifluoromethyl)isoindolin-1-one], in experiment [1], the pIC50 is 7.89 and the “fold-selectivity (Cbl-b over C-cbl)” value is 1.4x. This molecule had a pKd in experiment [2] of 7.82. In addition, the pIC50 in experiment [3] is 7.77. In experiment [4], the Fold of selectivity was determined as 9.1× and the pKd was 8.80.

With `Cn1cnnc1[C@]1(c2cccc(N3Cc4c(cc(CNC5(C)CCC5)cc4C(F)(F)F)C3=O)c2)C[C@]2(CCO2)C1` [Compound 108, 2-(3-((4r,6r)-6-(4-methyl-4H-1,2,4-triazol-3-yl)-1-oxaspiro[3.3]heptan-6-yl)phenyl)-6-(((1-methylcyclobutyl)amino)methyl)-4-(trifluoromethyl)isoindolin-1-one], in experiment [1], the pIC50 is 7.77 and the “fold-selectivity (Cbl-b over C-cbl)” value is recorded as 9.2x. In experiment [2], this molecule showed a pKd of 6.92. The molecule further had a pIC50 in experiment [3] of 6.80. Besides, in experiment [4], the Fold of selectivity is given as 21× and the pKd was 8.28.

Consider `Cn1cnnc1[C@]1(c2cccc(N3Cc4c(cc(CNC5(C)CCC5)cc4C(F)(F)F)C3=O)c2)C[C@@]2(CCO2)C1` [Compound 109, 2-(3-((4s,6s)-6-(4-methyl-4H-1,2,4-triazol-3-yl)-1-oxaspiro[3.3]heptan-6-yl)phenyl)-6-(((1-methylcyclobutyl)amino)methyl)-4-(trifluoromethyl)isoindolin-1-one], for which, in experiment [1], the pIC50 is 7.33 and the “fold-selectivity (Cbl-b over C-cbl)” value is given as 4.6x. The negative logarithm of the Kd (pKd) in experiment [2] was 6.85. For the same molecule, in experiment [3], the pIC50 is 6.66. In experiment [4], this molecule had a Fold of selectivity of 7.0× and a negative-log Kd (pKd) of 7.68.

As to `Cn1cnnc1C1(c2cccc(N3Cc4c(cc(CNC5(C)CCC5)cc4C(F)(F)F)C3=O)c2)CN(CC(F)(F)F)C1` [Compound 110, 2-(3-(3-(4-methyl-4H-1,2,4-triazol-3-yl)-1-(2,2,2-trifluoroethyl)azetidin-3-yl)phenyl)-6-(((1-methylcyclobutyl)amino)methyl)-4-(trifluoromethyl)isoindolin-1-one], the figures for the pIC50 in experiment [1] and in experiment [3] were 5.85 and 5.03, respectively. The “fold-selectivity (Cbl-b over C-cbl)” value in experiment [1] is on record as 6.5x. Moreover, the figures for the pKd in experiment [2] and in experiment [4] were 5.12 and 5.96, respectively. In experiment [4], this molecule returned a Fold of selectivity of 7.2×.

`Cn1cnnc1C1(c2cccc(N3Cc4c(cc(CNC5(C)CCC5)cc4C(F)(F)F)C3=O)c2)CN(C2COC2)C1` [Compound 111, 2-(3-(3-(4-methyl-4H-1,2,4-triazol-3-yl)-1-(oxetan-3-yl)azetidin-3-yl)phenyl)-6-(((1-methylcyclobutyl)amino)methyl)-4-(trifluoromethyl)isoindolin-1-one]: in experiment [1], the negative logarithm of the IC50 (pIC50) is 5.31 and the “fold-selectivity (Cbl-b over C-cbl)” value turned out to be 4.1x. The molecule also gave a pKd in experiment [2] of 4.51. This molecule had a pIC50 in experiment [3] of 4.70. For the same molecule, in experiment [4], the Fold of selectivity is 8.6× and the pKd is 5.44.

As for `Cn1cnnc1C1(c2cccc(N3Cc4c(cc(CNC5(C)CCC5)cc4C(F)(F)F)C3=O)c2)CN(S(C)(=O)=O)C1` [Compound 113, 2-(3-(3-(4-methyl-4H-1,2,4-triazol-3-yl)-1-(methylsulfonyl)azetidin-3-yl)phenyl)-6-(((1-methylcyclobutyl)amino)methyl)-4-(trifluoromethyl)isoindolin-1-one], the negative logarithm of the IC50 (pIC50) in experiment [1] was 5.46; in experiment [3], 4.74. The “fold-selectivity (Cbl-b over C-cbl)” value in experiment [1] is reported as 5.3x. In addition, the pKd in experiment [2] was 4.47; in experiment [4], 5.57. The Fold of selectivity in experiment [4] came to 13×.

As for `CO[C@H]1C[C@@](c2cccc(N3Cc4c(cc(CNC5(C)CCC5)cc4C(F)F)C3=O)c2)(c2nncn2C)C1` [Compound 116, 4-(difluoromethyl)-2-(3-((1s,3s)-3-methoxy-1-(4-methyl-4H-1,2,4-triazol-3-yl)cyclobutyl)phenyl)-6-(((1-methylcyclobutyl)amino)methyl)isoindolin-1-one], in experiment [1], the pIC50 was 7.60 and the “fold-selectivity (Cbl-b over C-cbl)” value was found to be 6.0x. For the same molecule, the pKd in experiment [2] is 6.96. This molecule gave a negative-log IC50 (pIC50) in experiment [3] of 6.82. Further, in experiment [4], the Fold of selectivity is reported as 15× and the pKd was 8.09.

Regarding `CO[C@H]1C[C@](c2cccc(N3Cc4c(cc(CNC5(C)CCC5)cc4C(F)F)C3=O)c2)(c2nncn2C)C1` [Compound 117, 4-(difluoromethyl)-2-(3-((1r,3r)-3-methoxy-1-(4-methyl-4H-1,2,4-triazol-3-yl)cyclobutyl)phenyl)-6-(((1-methylcyclobutyl)amino)methyl)isoindolin-1-one], the pIC50 is 7.92 in experiment [1] and 7.22 in experiment [3]. The “fold-selectivity (Cbl-b over C-cbl)” value in experiment [1] was determined as 5.0x. For the same molecule, the results for the pKd in experiment [2] and in experiment [4] were 7.28 and 8.49, respectively. The same molecule showed a Fold of selectivity in experiment [4] of 16×.

With `Cn1cnnc1[C@]1(c2cccc(N3Cc4c(cc(CNC5(C)CCC5)cc4C(F)(F)F)C3=O)c2)C[C@@](O)(C(F)(F)F)C1` [Compound 120, 2-(3-((1s,3s)-3-hydroxy-1-(4-methyl-4H-1,2,4-triazol-3-yl)-3-(trifluoromethyl)cyclobutyl)phenyl)-6-(((1-methylcyclobutyl)amino)methyl)-4-(trifluoromethyl)isoindolin-1-one], in experiment [1], the pIC50 was 6.44 and the “fold-selectivity (Cbl-b over C-cbl)” value was determined as 4.8 x. In experiment [2], this molecule gave a pKd of 5.85. For the same molecule, the pIC50 in experiment [3] was 5.74. In experiment [4], this molecule gave a Fold of selectivity of 6.8× and a pKd of 6.74.

In the case of `C[C@H]1C[C@@](c2cccc(N3Cc4c(cc(CNC5(C)CCC5)cc4C(F)(F)F)C3=O)c2)(c2nncn2C)O1` [Compound 123, 2-(3-((2R,4S)-4-methyl-2-(4-methyl-4H-1,2,4-triazol-3-yl)oxetan-2-yl)phenyl)-6-(((1-methylcyclobutyl)amino)methyl)-4-(trifluoromethyl)isoindolin-1-one], in experiment [1], the pIC50 was 7.17 and the “fold-selectivity (Cbl-b over C-cbl)” value was 3.4x. The molecule further had a pKd in experiment [2] of 6.89. In experiment [3], the pIC50 is 6.64. In experiment [4], the Fold of selectivity was found to be 6.1× and the pKd was 7.68.
